Key:
[1] = target: human immunoproteasome hiβ5 (Homo sapiens, UniProt P20618+P28062); experiment: Purified human immunoproteasome β5; format: biochemical; settings: purified human immunoproteasomes 8 μg/mL, Suc-LLVY-AMC
hcCP β5 in MCF7 cells = experiment: Cellular infiltration: β5 inhibition in intact versus lysed MCF7 cells; format: cell-based, human; settings: one hour treatment, relative to 1
cancer cells = experiment: Western blot and flow cytometry analysis of treated cancer cells; format: cell-based; settings: Figure S4
[2] = target: yeast 20S proteasome (yCP) yβ5 (Saccharomyces cerevisiae, UniProt P23724+P30656); experiment: Purified yeast proteasome inhibition, yβ5; format: biochemical
MCF7 = settings: MCF7, relative to CysB; cited from earlier work

Row | Structure (SMILES) | isoform preference hiβ5 versus yβ5 [1] | times more capable of crossing the cell membrane than 1 (hcCP β5 in MCF7 cells) | apoptosis (flow cytometry) (cancer cells) | cell cycle (flow cytometry) (cancer cells) | ubiquitinated proteins (Western blot) (cancer cells) | fold decreased IC50 for yβ5 versus yβ1 [2] [fold] | times more cytotoxic than CysB (MCF7)
1 | CC[C@H](C)[C@@H]1C(=O)O[C@H]1C(=O)N[C@H](C(=O)N[C@H](C(=O)OCc1ccccc1)C(C)C)C(C)C [Compound 2, benzyl((2R,3S)-3-((S)-sec-butyl)-4-oxooxetane-2-carbonyl)-L-valyl-L-valinate] | slight preference for hiβ5 | approximately 10 times | induced apoptosis | arrested cells in the G2/M phase | accumulation of ubiquitinated proteins |  | 
2 | CC(C)[C@H](NC(=O)[C@@H](NC(=O)[C@@H]1OC(=O)[C@H]1C(C)C)C(C)C)C(=O)O [Cystargolide B, reference compound] |  |  |  |  |  | 50 | 
3 | CC(C)[C@H](NC(=O)[C@@H]1OC(=O)[C@H]1C(C)C)C(=O)N[C@H](C(=O)OCc1ccccc1)C(C)C [Compound 1] |  |  | induced apoptosis | arrested cells in the G2/M phase | accumulation of ubiquitinated proteins |  | over 10 times
4 | CC[C@H](C)[C@@H]1C(=O)O[C@H]1C(=O)N[C@H](C(=O)N[C@@H](COCc1ccccc1)C(=O)OCc1ccccc1)C(C)C [Compound 5k, benzylO-benzyl-N-(((2R,3S)-3-((S)-sec-butyl)-4-oxooxetane-2-carbonyl)-L-valyl)-L-serinate] | slight preference for hiβ5 |  |  |  |  |  | 
